These are literature values, as cited in patent US11549142B2, “CETP inhibitors for therapeutic use” (Hoffmann-La Roche Inc., priority 2013, dated 2023).

Structures are written as SMILES. Where two headings read alike, the source gives them in different places.

The conditions of data set [1]: rabbits, Okamoto et al., cited from earlier work.
In data set [2] the target is T1, CETP (Oryctolagus cuniculus, UniProt P22687).
T1 construct: host or cells: rabbits (endogenous plasma CETP)
T1 sequence (P22687 2-497): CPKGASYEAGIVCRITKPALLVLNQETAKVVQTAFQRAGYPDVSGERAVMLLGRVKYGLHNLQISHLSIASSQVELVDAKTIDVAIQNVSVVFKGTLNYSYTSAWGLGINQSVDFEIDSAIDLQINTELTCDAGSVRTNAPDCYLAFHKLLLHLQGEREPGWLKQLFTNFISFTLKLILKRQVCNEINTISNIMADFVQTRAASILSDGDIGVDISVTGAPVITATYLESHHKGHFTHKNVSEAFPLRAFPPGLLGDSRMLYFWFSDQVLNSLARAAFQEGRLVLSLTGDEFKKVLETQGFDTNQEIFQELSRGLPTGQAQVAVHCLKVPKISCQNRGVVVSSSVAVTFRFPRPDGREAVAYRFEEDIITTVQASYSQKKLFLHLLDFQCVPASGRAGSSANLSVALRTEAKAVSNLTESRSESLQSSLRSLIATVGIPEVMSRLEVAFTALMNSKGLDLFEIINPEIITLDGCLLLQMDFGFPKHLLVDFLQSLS
The note with it: rabbits; Shinkai et al., Kobayashi et al., Okamoto et al.; cited from earlier work.

For data set [3] the following is noted: humans; de Grooth et al.; cited from earlier work.
The target in data set [4] is T2, CETP (Homo sapiens, UniProt P11597).
T2 construct: host or cells: humans treated with the compound (endogenous plasma CETP)
T2 sequence (P11597 18-493): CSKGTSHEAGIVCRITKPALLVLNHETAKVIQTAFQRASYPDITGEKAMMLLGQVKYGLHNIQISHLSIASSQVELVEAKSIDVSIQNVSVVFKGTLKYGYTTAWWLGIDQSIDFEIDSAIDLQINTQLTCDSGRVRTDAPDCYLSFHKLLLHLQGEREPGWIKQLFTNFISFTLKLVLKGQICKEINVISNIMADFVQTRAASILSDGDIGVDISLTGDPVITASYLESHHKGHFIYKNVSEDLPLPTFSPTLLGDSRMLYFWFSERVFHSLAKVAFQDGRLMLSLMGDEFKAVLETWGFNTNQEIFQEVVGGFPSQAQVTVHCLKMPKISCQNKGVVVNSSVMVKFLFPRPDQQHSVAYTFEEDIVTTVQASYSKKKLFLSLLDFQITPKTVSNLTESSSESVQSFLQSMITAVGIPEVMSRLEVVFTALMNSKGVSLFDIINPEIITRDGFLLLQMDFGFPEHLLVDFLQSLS
The note with it: humans; de Grooth et al.; cited from earlier work.

On to `CCC(CC)CC1(C(=O)Nc2ccccc2SC(=O)C(C)C)CCCCC1` [dalcetrapib, thioisobutyric acid S-(2-{[1-(2-ethyl-butyl)-cyclohexanecarbonyl]-amino}-phenyl) ester], for which the LDL cholesterol result in data set [1] and in data set [3] was “decrease LDL cholesterol” throughout. Also, the “plasma HDL cholesterol” value was “increase plasma HDL cholesterol” in data set [1] (Shinkai et al., Kobayashi et al.) and “increase plasma HDL cholesterol” in data set [3]. Moreover, the CETP activity result in data set [2] and in data set [4] was “inhibitor of CETP activity” in each case.
